Values of other authors in US20150086616A1, “METHOD FOR THE PREVENTION AND TREATMENT OF ALZHEIMER'S DISEASE” (priority 2013, published 2015).

Key:
Alzheimer's disease = settings: for efficacy of oral NSAID as treatment of Alzheimer's disease: oral administration
[1] = highly lipophilic drugs
[2] = ophthalmic
[3] = after multiple oral doses of ibuprofen

Row | Structure (SMILES) | crossing of the blood brain barrier [1] | direct cyclooxygenase inhibition (cyclooxygenase) | efficacy of oral NSAID as treatment of Alzheimer's disease (Alzheimer's disease) | further results
1 | C[C@H](C(=O)O)c1ccc(-c2ccccc2)c(F)c1 (single isomer, unassigned) [S-enantiomer of flurbiprofen] | – | is a cyclooxygenase inhibitor | – | –
2 | C[C@@H](C(=O)O)c1ccc(-c2ccccc2)c(F)c1 [R-flurbiprofen] | – | devoid of any direct cyclooxygenase inhibition | – | phase III clinical trial for the treatment of Alzheimer's disease (Alzheimer's disease; phase III clinical trial): failed
3 | CC(C(=O)O)c1ccc(-c2ccccc2)c(F)c1 (stereo not drawn) [flurbiprofen] | readily cross the blood brain barrier | – | not an effective treatment | –

Now from value to compound, other results behind:

Row | crossing of the blood brain barrier [1] | Structure (SMILES) | direct cyclooxygenase inhibition (cyclooxygenase) | efficacy of oral NSAID as treatment of Alzheimer's disease (Alzheimer's disease) | further results
4 | readily cross the blood brain barrier | O=C(O)Cc1ccccc1Nc1c(Cl)cccc1Cl [diclofenac] | – | – | anti-inflammatory action compared with flurbiprofen [2]: more anti-inflammatory action; burning sensation compared with flurbiprofen [2]: less burning sensation
5 | readily cross the blood brain barrier | CC(C)Cc1ccc(C(C)C(=O)O)cc1 (stereo not drawn) [ibuprofen] | – | not an effective treatment | brain concentration [3]: 0.4 µg/g; concentration in fat [3]: 58.4 μg/g tissue
